Measurements taken from the NIST ThermoML archive (doi:10.1021/acs.jced.5b01057).
± gives the expanded uncertainty stated by the source.

Key:
[1] = mn = molality of the nth substance listed, in mol/kg; settings: for surface tension liquid-gas: Pendant drop shape; for electrical conductivity: 100 kPa, Liquid, Alternating current cell with electrodes
[2] = Crystal; visual observation

O [water] + CCC(=O)[O-].CCCCCCCCCCCC[NH2+]C1O[C@H](CO)[C@@H](O[C@@H]2O[C@H](CO)[C@H](O)[C@H](O)[C@H]2O)[C@H](O)[C@H]1O
[1], 323.15 K, m2 = 0
Settings	electrical conductivity [S/m]	surface tension liquid-gas [mN/m]
–	0.0001534 ± 1e-07	68.57 ± 0.79

CCC(=O)[O-].CCCCCCCCCCCC[NH2+]C1O[C@H](CO)[C@@H](O[C@@H]2O[C@H](CO)[C@H](O)[C@H](O)[C@H]2O)[C@H](O)[C@H]1O (some centres undefined) [N-dodecyllactosylammonium propanoate] + O
[1], 323.15 K
Settings	electrical conductivity [S/m]	surface tension liquid-gas [mN/m]
m1 = 0.2	0.001042 ± 1e-06	67.63 ± 0.79
m1 = 0.3	–	63.03 ± 0.74
m1 = 0.4	0.001921 ± 1e-06	58.77 ± 0.71
m1 = 0.5	–	53.31 ± 0.65
m1 = 0.6	0.00272 ± 1e-05	50.73 ± 0.63
m1 = 0.7	–	45.91 ± 0.58
m1 = 0.79	0.00355 ± 1e-05	–
m1 = 0.8	–	42.76 ± 0.55
m1 = 0.9	–	39.81 ± 0.52
m1 = 0.99	0.00435 ± 1e-05	–
m1 = 1	–	37.73 ± 0.5
m1 = 1.1	–	35.61 ± 0.48
m1 = 1.19	0.00512 ± 1e-05	–
m1 = 1.2	–	34.86 ± 0.48

CCCCCCCCCCCC[NH2+]C1O[C@H](CO)[C@@H](O[C@@H]2O[C@H](CO)[C@H](O)[C@H](O)[C@H]2O)[C@H](O)[C@H]1O.CCCCCCCCCCCC[NH2+]C1O[C@H](CO)[C@@H](O[C@@H]2O[C@H](CO)[C@H](O)[C@H](O)[C@H]2O)[C@H](O)[C@H]1O.O=C([O-])CCCCC(=O)[O-] (some centres undefined) [N-dodecyllactosylammonium hexanedioate] + O
[1]
Settings	electrical conductivity [S/m]	surface tension liquid-gas [mN/m]
298.15 K, m1 = 0.0005	–	65.42 ± 1.4
298.15 K, m1 = 0.001	–	57.54 ± 1.2
298.15 K, m1 = 0.0015	–	52.44 ± 1.1
298.15 K, m1 = 0.00159	0.00604 ± 0.00061	–
298.15 K, m1 = 0.002	–	48.72 ± 1.1
298.15 K, m1 = 0.0025	–	46.11 ± 1
298.15 K, m1 = 0.003	–	43.65 ± 0.95
298.15 K, m1 = 0.00317	0.0113 ± 0.0011	–
298.15 K, m1 = 0.00396	0.0137 ± 0.0014	–
298.15 K, m1 = 0.004	–	39.6 ± 0.87
298.15 K, m1 = 0.00474	0.0159 ± 0.0016	–
298.15 K, m1 = 0.005	–	36.39 ± 0.8
298.15 K, m1 = 0.00552	0.0182 ± 0.0019	–
298.15 K, m1 = 0.006	–	34.24 ± 0.75
298.15 K, m1 = 0.0063	0.0212 ± 0.0022	–
298.15 K, m1 = 0.007	–	33.1 ± 0.73
298.15 K, m1 = 0.00707	0.023 ± 0.0023	–
323.15 K, m1 = 0.0004	–	62.97 ± 1.4
323.15 K, m1 = 0.0006	–	58.09 ± 1.3
323.15 K, m1 = 0.001	–	52.58 ± 1.1
323.15 K, m1 = 0.0014	–	47.88 ± 1
323.15 K, m1 = 0.00159	0.00898 ± 0.00091	–
323.15 K, m1 = 0.002	–	43.86 ± 0.96
323.15 K, m1 = 0.0024	–	41.18 ± 0.9
323.15 K, m1 = 0.003	–	38.37 ± 0.84
323.15 K, m1 = 0.00317	0.0165 ± 0.0017	–
323.15 K, m1 = 0.004	–	35.16 ± 0.77
323.15 K, m1 = 0.00474	0.0258 ± 0.0026	–
323.15 K, m1 = 0.005	–	32.73 ± 0.72
323.15 K, m1 = 0.0063	0.0334 ± 0.0034	–

O [water] + CCCCCC(=O)[O-].CCCCCCCCCCCC[NH2+]C1O[C@H](CO)[C@@H](O[C@@H]2O[C@H](CO)[C@H](O)[C@H](O)[C@H]2O)[C@H](O)[C@H]1O
[1], 323.15 K, m2 = 0
Settings	electrical conductivity [S/m]	surface tension liquid-gas [mN/m]
–	0.000255 ± 1e-06	68.72 ± 0.79

CCCCCCCCCCCCNC1O[C@H](CO)[C@@H](O[C@@H]2O[C@H](CO)[C@H](O)[C@H](O)[C@H]2O)[C@H](O)[C@H]1O (some centres undefined) [N-dodecyllactosylamine]
Settings	Triple point temperature [K]
[2]	398.65 ± 0.5

CCCCCCCCCCCC[NH2+]C1O[C@H](CO)[C@@H](O[C@@H]2O[C@H](CO)[C@H](O)[C@H](O)[C@H]2O)[C@H](O)[C@H]1O.CCCCCCCCCCCC[NH2+]C1O[C@H](CO)[C@@H](O[C@@H]2O[C@H](CO)[C@H](O)[C@H](O)[C@H]2O)[C@H](O)[C@H]1O.O=C([O-])CC(=O)[O-] (some centres undefined) [N-dodecyllactosylammonium propanedioate] + O
[1]
Settings	electrical conductivity [S/m]	surface tension liquid-gas [mN/m]
298.15 K, m1 = 0.0005	–	68.12 ± 1.5
298.15 K, m1 = 0.001	–	61.14 ± 1.3
298.15 K, m1 = 0.0015	–	55.99 ± 1.2
298.15 K, m1 = 0.00159	0.00597 ± 0.00061	–
298.15 K, m1 = 0.002	–	51.91 ± 1.1
298.15 K, m1 = 0.0025	–	47.5 ± 1
298.15 K, m1 = 0.003	–	44.9 ± 0.98
298.15 K, m1 = 0.00317	0.0115 ± 0.0012	–
298.15 K, m1 = 0.004	–	40.37 ± 0.88
298.15 K, m1 = 0.00474	0.0168 ± 0.0017	–
298.15 K, m1 = 0.005	–	35.39 ± 0.78
298.15 K, m1 = 0.00552	0.0194 ± 0.002	–
298.15 K, m1 = 0.006	–	32.88 ± 0.73
298.15 K, m1 = 0.0063	0.0227 ± 0.0023	–
298.15 K, m1 = 0.007	–	30.63 ± 0.68
298.15 K, m1 = 0.00707	0.0251 ± 0.0026	–
298.15 K, m1 = 0.00784	0.0271 ± 0.0027	–
298.15 K, m1 = 0.008	–	28.97 ± 0.64
298.15 K, m1 = 0.00861	0.0288 ± 0.0029	–
323.15 K, m1 = 0.0004	–	65.73 ± 1.4
323.15 K, m1 = 0.0006	–	62.69 ± 1.4
323.15 K, m1 = 0.0008	–	59.26 ± 1.3
323.15 K, m1 = 0.001	–	56.85 ± 1.2
323.15 K, m1 = 0.0014	–	52.69 ± 1.1
323.15 K, m1 = 0.00159	0.00958 ± 0.00097	–
323.15 K, m1 = 0.002	–	47.4 ± 1
323.15 K, m1 = 0.0024	–	44.7 ± 0.98
323.15 K, m1 = 0.003	–	41.32 ± 0.9
323.15 K, m1 = 0.00317	0.0164 ± 0.0017	–
323.15 K, m1 = 0.004	–	37.19 ± 0.82
323.15 K, m1 = 0.00474	0.0257 ± 0.0026	–
323.15 K, m1 = 0.005	–	33.3 ± 0.73
323.15 K, m1 = 0.006	–	30.53 ± 0.68
323.15 K, m1 = 0.0063	0.0329 ± 0.0033	–
323.15 K, m1 = 0.007	–	28.43 ± 0.63
323.15 K, m1 = 0.00784	0.0387 ± 0.0039	–
323.15 K, m1 = 0.008	–	26.79 ± 0.6

O [water] + CCCCCCCCCCCC[NH2+]C1O[C@H](CO)[C@@H](O[C@@H]2O[C@H](CO)[C@H](O)[C@H](O)[C@H]2O)[C@H](O)[C@H]1O.CCCCCCCCCCCC[NH2+]C1O[C@H](CO)[C@@H](O[C@@H]2O[C@H](CO)[C@H](O)[C@H](O)[C@H]2O)[C@H](O)[C@H]1O.O=C([O-])CC(=O)[O-]
[1], m2 = 0
Settings	surface tension liquid-gas [mN/m]
298.15 K	71.76 ± 1.6
323.15 K	68.05 ± 1.5

CCCCCC(=O)[O-].CCCCCCCCCCCC[NH2+]C1O[C@H](CO)[C@@H](O[C@@H]2O[C@H](CO)[C@H](O)[C@H](O)[C@H]2O)[C@H](O)[C@H]1O (some centres undefined) [N-dodecyllactosylammonium hexanoate] + O
[1], 323.15 K
Settings	electrical conductivity [S/m]	surface tension liquid-gas [mN/m]
m1 = 0.4	0.001851 ± 1e-06	58.74 ± 0.71
m1 = 0.6	–	52.11 ± 0.65
m1 = 0.79	0.00335 ± 1e-05	–
m1 = 0.8	–	48.69 ± 0.62
m1 = 1	–	45.57 ± 0.59
m1 = 1.19	0.0048 ± 1e-05	–
m1 = 1.57	0.00609 ± 1e-05	–
m1 = 1.6	–	37.41 ± 0.52
m1 = 1.96	0.00734 ± 1e-05	–
m1 = 2	–	34.64 ± 0.49
m1 = 2.34	0.00864 ± 1e-05	–
m1 = 2.4	–	32.22 ± 0.47
m1 = 2.72	0.00986 ± 1e-05	–
m1 = 3	–	30.32 ± 0.45
m1 = 3.1	0.01083 ± 1e-05	–

O [water] + CCCCCCCCCCCC[NH2+]C1O[C@H](CO)[C@@H](O[C@@H]2O[C@H](CO)[C@H](O)[C@H](O)[C@H]2O)[C@H](O)[C@H]1O.CCCCCCCCCCCC[NH2+]C1O[C@H](CO)[C@@H](O[C@@H]2O[C@H](CO)[C@H](O)[C@H](O)[C@H]2O)[C@H](O)[C@H]1O.O=C([O-])CCCCC(=O)[O-]
[1], m2 = 0
Settings	surface tension liquid-gas [mN/m]
298.15 K	72.71 ± 1.6
323.15 K	68.94 ± 1.5
